Test results from patent US11198713B2, “Agents modulating beta-catenin functions and methods thereof” (FOG PHARMACEUTICALS, INC., priority 2017, dated 2021).
Numbered stars: 1 amine (or outer) side, 2 acyl side, 3 side chain; on linkers, the order of the positions; unused ones are H or OH. Bridge positions count the residues as written; N and C are the ends. Square brackets hold non-standard residues; d marks the D form. Peptide text beside a SMILES is read from it. 3Aminoazetidine3carboxyl = O=C(C1(N[*:1])CN([*:3])C1)[*:2]; dαMeOrn(Me) = CN(CCC[C@@](C)(N[*:1])C(=O)[*:2])[*:3]; dαMeDab(Me) = CN(CC[C@@](C)(N[*:1])C(=O)[*:2])[*:3]; dαMeDap(Me) = CN(C[C@@](C)(N[*:1])C(=O)[*:2])[*:3]; αMeDab(Me) = CN(CC[C@](C)(N[*:1])C(=O)[*:2])[*:3]; X3 = O=C([C@@]1(N[*:1])CCN([*:3])C1)[*:2]; X1 = O=C([C@]1(N[*:1])CCN([*:3])C1)[*:2]; X2 = O=C(OCC=CCOC(=O)[*:2])[*:1]

Target: T1, full-length beta-catenin (Axin site) (Homo sapiens, UniProt P35222)
T1 construct: 15 nM full-length beta-catenin, 20 nM FITC labeled peptide in buffer
T1 sequence (P35222 1-781): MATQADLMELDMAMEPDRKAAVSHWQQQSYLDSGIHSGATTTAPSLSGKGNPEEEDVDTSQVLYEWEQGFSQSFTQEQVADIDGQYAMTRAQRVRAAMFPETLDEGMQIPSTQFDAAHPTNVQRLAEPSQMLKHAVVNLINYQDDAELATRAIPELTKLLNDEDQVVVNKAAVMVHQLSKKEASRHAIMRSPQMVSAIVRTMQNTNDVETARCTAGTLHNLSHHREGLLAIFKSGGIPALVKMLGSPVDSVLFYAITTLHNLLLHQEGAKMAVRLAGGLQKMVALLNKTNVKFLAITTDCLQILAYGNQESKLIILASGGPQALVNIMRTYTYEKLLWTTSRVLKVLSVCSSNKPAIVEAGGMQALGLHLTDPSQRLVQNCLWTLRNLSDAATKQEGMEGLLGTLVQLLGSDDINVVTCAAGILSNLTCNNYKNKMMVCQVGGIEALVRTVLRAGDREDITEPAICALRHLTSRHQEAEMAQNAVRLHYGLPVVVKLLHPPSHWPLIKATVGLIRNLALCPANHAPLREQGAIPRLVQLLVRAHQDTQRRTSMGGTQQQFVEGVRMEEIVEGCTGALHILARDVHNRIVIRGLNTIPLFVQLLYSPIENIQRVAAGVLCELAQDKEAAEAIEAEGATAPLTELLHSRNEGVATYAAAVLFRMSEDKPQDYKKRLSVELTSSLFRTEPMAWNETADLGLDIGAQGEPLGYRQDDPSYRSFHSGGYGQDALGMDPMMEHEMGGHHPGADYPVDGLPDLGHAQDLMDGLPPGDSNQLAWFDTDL
Assay: Competition fluorescence polarization assay (Axin site probe)
Type: binding
Conditions: competition fluorescence polarization, Table 2; read-out: in vitro FP EC50
Procedure, shortened: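 Competition FP: 15 nM full-length β-catenin pre-incubated 5 min with 20 nM FITC-labelled stapled Axin-site peptide, then titrated peptide added (3-fold series from 5 μM) for 15 min in the dark. Buffer 50 mM Tris pH 8.0, 250 mM NaCl, 2% glycerol, 0.5 mM EDTA; duplicate reads.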

Row | SMILES | EC50
1 | CC[C@H](C)[C@@H]1NC(=O)[C@H](Cc2c[nH]cn2)NC(=O)[C@H](C)NC(=O)[C@H](CC(=O)O)NC(=O)[C@H](CC(C)C)NC(=O)[C@H]([C@@H](C)CC)NC(=O)[C@](C)(NC(=O)[C@H](C)NC(C)=O)CCN(C)C(=O)OCC=CCOC(=O)N(C)C[C@](C)(C(=O)N[C@@H](CCCNC(=N)N)C(=O)N[C@H](C(=O)N[C@@H](Cc2c[nH]c3ccccc23)C(N)=O)C(C)C)NC1=O [FP0596c, Ac-A-MG-I-L-D-A-H-I-ME-R-V-W-NH2] (Ac-A[dαMeDab(Me)]ILDAHI[dαMeDap(Me)]RVW-NH2; linker 2-9 via X2) | 0.5 to 5 µM
2 | CC[C@H](C)[C@@H]1NC(=O)[C@H](Cc2c[nH]cn2)NC(=O)[C@H](C)NC(=O)[C@H](CC(=O)O)NC(=O)[C@H](CC(C)C)NC(=O)[C@H]([C@@H](C)CC)NC(=O)C2(NC(=O)[C@H](C)NC(C)=O)CN(C2)C(=O)OCC=CCOC(=O)N(C)CCC[C@](C)(C(=O)N[C@@H](CCCNC(=N)N)C(=O)N[C@H](C(=O)N[C@@H](Cc2c[nH]c3ccccc23)C(N)=O)C(C)C)NC1=O [FP0625c, Ac-A-MA-I-L-D-A-H-I-MI-R-V-W-NH2] (Ac-A[3Aminoazetidine3carboxyl]ILDAHI[dαMeOrn(Me)]RVW-NH2; linker 2-9 via X2) | 0.1 to 0.5 µM
3 | CC[C@H](C)[C@@H]1NC(=O)[C@H](Cc2c[nH]cn2)NC(=O)[C@H](C)NC(=O)[C@H](CCS(C)(=O)=O)NC(=O)[C@H](CC(C)C)NC(=O)[C@H]([C@@H](C)CC)NC(=O)[C@](C)(NC(=O)[C@H](C)NC(C)=O)CCCCCCC=CCOC(=O)N2CC[C@@](C(=O)N[C@@H](CCCNC(=N)N)C(=O)N[C@H](C(=O)N[C@@H](Cc3c[nH]c4ccccc34)C(N)=O)C(C)C)(C2)NC1=O [FP0629c, Ac-A-R8-I-L-M2O-A-H-I-MB-R-V-W-NH2] | 0.5 to 5 µM
4 | CC[C@H](C)[C@@H]1NC(=O)[C@H](Cc2c[nH]cn2)NC(=O)[C@H](C)NC(=O)[C@H](CC(=O)O)NC(=O)[C@H](CC(C)C)NC(=O)[C@H]([C@@H](C)CC)NC(=O)[C@](C)(NC(=O)[C@H](C)NC(C)=O)CCCCCCC=CCOC(=O)N2CC[C@@](C(=O)N[C@@H](CCCNC(=N)N)C(=O)N[C@H](C(=O)N[C@H](Cc3c[nH]c4ccccc34)C(N)=O)C(C)C)(C2)NC1=O [FP0630c, Ac-A-R8-I-L-D-A-H-I-MB-R-V-dW-NH2] | 0.1 to 0.5 µM
5 | CC[C@H](C)[C@@H]1NC(=O)[C@H](Cc2c[nH]cn2)NC(=O)[C@H](C)NC(=O)[C@H](CC(=O)O)NC(=O)[C@H](CC(C)C)NC(=O)[C@H]([C@@H](C)CC)NC(=O)[C@](C)(NC(=O)[C@H](C)NC(C)=O)CCCCCCC=CCOC(=O)N2CC[C@@](C(=O)N[C@@H](CCCNC(=N)N)C(=O)N[C@H](C(=O)N[C@@](C)(Cc3c[nH]c4ccccc34)C(N)=O)C(C)C)(C2)NC1=O [FP0631c, Ac-A-R8-I-L-D-A-H-I-MB-R-V-aMeW-NH2] | 0.5 to 5 µM
6 | CC[C@H](C)[C@@H]1NC(=O)[C@H](Cc2c[nH]cn2)NC(=O)[C@H](C)NC(=O)[C@H](CC(=O)O)NC(=O)[C@H](CC(C)C)NC(=O)[C@H]([C@@H](C)CC)NC(=O)[C@](C)(NC(=O)[C@H](C)NC(C)=O)CCCCCCC=CCOC(=O)N2CC[C@@](C(=O)N[C@@H](CCCNC(=N)N)C(=O)N[C@@](C)(CC(C)C)C(=O)N[C@@H](Cc3c[nH]c4ccccc34)C(N)=O)(C2)NC1=O [FP0633c, Ac-A-R8-I-L-D-A-H-I-MB-R-aMeL-W-NH2] | 0.5 to 5 µM
7 | CC[C@H](C)[C@@H]1NC(=O)[C@H](Cc2c[nH]cn2)NC(=O)[C@H](C)NC(=O)[C@H](CC(=O)O)NC(=O)[C@H](CC(C)C)NC(=O)[C@H]([C@@H](C)CC)NC(=O)[C@](C)(NC(=O)[C@H](C)NC(C)=O)CCCCCCC=CCOC(=O)N2CC[C@@](C(=O)N[C@@H](CCCCN)C(=O)N[C@H](C(=O)N[C@@H](Cc3c[nH]c4ccccc34)C(N)=O)C(C)C)(C2)NC1=O [FP0635c, Ac-A-R8-I-L-D-A-H-I-MB-K-V-W-NH2] | 0.1 to 0.5 µM
8 | CC[C@H](C)[C@@H]1NC(=O)[C@H](Cc2c[nH]cn2)NC(=O)[C@H](C)NC(=O)[C@H](CC(=O)O)NC(=O)[C@H](CC(C)C)NC(=O)[C@H]([C@@H](C)CC)NC(=O)[C@](C)(NC(=O)[C@H](C)NC(C)=O)CCCCCCC=CCOC(=O)N2CC[C@@](C(=O)N[C@@H](CCCCNC)C(=O)N[C@H](C(=O)N[C@@H](Cc3c[nH]c4ccccc34)C(N)=O)C(C)C)(C2)NC1=O [FP0636c, Ac-A-R8-I-L-D-A-H-I-MB-lmeK-V-W-NH2] | 0.1 to 0.5 µM

Further lines, results first:

Row | EC50 | SMILES
9 | < 0.1 µM | CC[C@H](C)[C@@H]1NC(=O)[C@H](Cc2c[nH]cn2)NC(=O)[C@H](C)NC(=O)[C@H](CC(=O)O)NC(=O)[C@H](CC(C)C)NC(=O)[C@H]([C@@H](C)CC)NC(=O)[C@](C)(NC(=O)[C@H](C)NC(C)=O)CCCN(C)C(=O)OCC=CCOC(=O)N(C)CC[C@@](C)(C(=O)N[C@@H](CCCNC(=N)N)C(=O)N[C@H](C(=O)N[C@@H](Cc2c[nH]c3ccccc23)C(N)=O)C(C)C)NC1=O [FP0587c, Ac-A-MI-I-L-D-A-H-I-MF-R-V-W-NH2] (Ac-A[dαMeOrn(Me)]ILDAHI[αMeDab(Me)]RVW-NH2; linker 2-9 via X2)
10 | < 0.1 µM | CC[C@H](C)[C@@H]1NC(=O)[C@H](Cc2c[nH]cn2)NC(=O)[C@H](C)NC(=O)[C@H](CC(=O)O)NC(=O)[C@H](CC(C)C)NC(=O)[C@H]([C@@H](C)CC)NC(=O)[C@](C)(NC(=O)[C@H](C)NC(C)=O)CN(C)C(=O)OCC=CCOC(=O)N(C)CC[C@@](C)(C(=O)N[C@@H](CCCNC(=N)N)C(=O)N[C@H](C(=O)N[C@@H](Cc2c[nH]c3ccccc23)C(N)=O)C(C)C)NC1=O [FP0601c, Ac-A-ME-I-L-D-A-H-I-MF-R-V-W-NH2] (Ac-A[dαMeDap(Me)]ILDAHI[αMeDab(Me)]RVW-NH2; linker 2-9 via X2)
11 | < 0.1 µM | CC[C@H](C)[C@@H]1NC(=O)[C@H](Cc2c[nH]cn2)NC(=O)[C@H](C)NC(=O)[C@H](CC(=O)O)NC(=O)[C@H](CC(C)C)NC(=O)[C@H]([C@@H](C)CC)NC(=O)[C@](C)(NC(=O)[C@H](C)NC(C)=O)CN(C)C(=O)OCC=CCOC(=O)N2CC[C@@](C(=O)N[C@@H](CCCNC(=N)N)C(=O)N[C@H](C(=O)N[C@@H](Cc3c[nH]c4ccccc34)C(N)=O)C(C)C)(C2)NC1=O [FP0604c, Ac-A-ME-I-L-D-A-H-I-MB-R-V-W-NH2] (Ac-A[dαMeDap(Me)]ILDAHI[X1]RVW-NH2; linker 2-9 via X2)
12 | < 0.1 µM | CC[C@H](C)[C@@H]1NC(=O)[C@H](Cc2c[nH]cn2)NC(=O)[C@H](C)NC(=O)[C@H](CC(=O)O)NC(=O)[C@H](CC(C)C)NC(=O)[C@H]([C@@H](C)CC)NC(=O)[C@](C)(NC(=O)[C@H](C)NC(C)=O)CN(C)C(=O)OCC=CCOC(=O)N2CC[C@](C(=O)N[C@@H](CCCNC(=N)N)C(=O)N[C@H](C(=O)N[C@@H](Cc3c[nH]c4ccccc34)C(N)=O)C(C)C)(C2)NC1=O [FP0605c, Ac-A-ME-I-L-D-A-H-I-MC-R-V-W-NH2] (Ac-A[dαMeDap(Me)]ILDAHI[X3]RVW-NH2; linker 2-9 via X2)
13 | < 0.1 µM | CC[C@H](C)[C@@H]1NC(=O)[C@H](Cc2c[nH]cn2)NC(=O)[C@H](C)NC(=O)[C@H](CC(=O)O)NC(=O)[C@H](CC(C)C)NC(=O)[C@H]([C@@H](C)CC)NC(=O)C2(NC(=O)[C@H](C)NC(C)=O)CN(C2)C(=O)OCC=CCOC(=O)N(C)CC[C@@](C)(C(=O)N[C@@H](CCCNC(=N)N)C(=O)N[C@H](C(=O)N[C@@H](Cc2c[nH]c3ccccc23)C(N)=O)C(C)C)NC1=O [FP0611c, Ac-A-MA-I-L-D-A-H-I-MF-R-V-W-NH2] (Ac-A[3Aminoazetidine3carboxyl]ILDAHI[αMeDab(Me)]RVW-NH2; linker 2-9 via X2)
14 | < 0.1 µM | CC[C@H](C)[C@@H]1NC(=O)[C@H](Cc2c[nH]cn2)NC(=O)[C@H](C)NC(=O)[C@H](CC(=O)O)NC(=O)[C@H](CC(C)C)NC(=O)[C@H]([C@@H](C)CC)NC(=O)[C@](C)(NC(=O)[C@H](C)NC(C)=O)CCCCCCC=CCOC(=O)N2CC[C@@](C(=O)N[C@@H](CCCCNC(=N)N)C(=O)N[C@H](C(=O)N[C@@H](Cc3c[nH]c4ccccc34)C(N)=O)C(C)C)(C2)NC1=O [FP0634c, Ac-A-R8-I-L-D-A-H-I-MB-hArg-V-W-NH2]
15 | < 0.1 µM | CC[C@H](C)[C@@H]1NC(=O)[C@H](Cc2c[nH]cn2)NC(=O)[C@H](C)NC(=O)[C@H](CC(=O)O)NC(=O)[C@H](CC(C)C)NC(=O)[C@H]([C@@H](C)CC)NC(=O)[C@](C)(NC(=O)[C@H](C)NC(C)=O)CCCCCCC=CCOC(=O)N2CC[C@@](C(=O)N[C@@H](CCCNC(=N)N(C)C)C(=O)N[C@H](C(=O)N[C@@H](Cc3c[nH]c4ccccc34)C(N)=O)C(C)C)(C2)NC1=O [FP0639c, Ac-A-R8-I-L-D-A-H-I-MB-ADMA-V-W-NH2]
16 | < 0.1 µM | CC[C@H](C)[C@@H]1NC(=O)[C@H](Cc2c[nH]cn2)NC(=O)[C@H](C)NC(=O)[C@H](CC(=O)O)NC(=O)[C@H](CC(C)C)NC(=O)[C@H]([C@@H](C)CC)NC(=O)[C@](C)(NC(=O)[C@H](C)NC(C)=O)CCCCCCC=CCOC(=O)N2CC[C@@](C(=O)N[C@@H](CCCNC(=NC)NC)C(=O)N[C@H](C(=O)N[C@@H](Cc3c[nH]c4ccccc34)C(N)=O)C(C)C)(C2)NC1=O [FP0640c, Ac-A-R8-I-L-D-A-H-I-MB-SDMA-V-W-NH2]
